Counter-ions that a name gives are not always drawn. Like-named read-outs stand apart in the source and are kept apart here.
Columns and labels:
α1 = experiment: Receptor profile, binding studies (α1)
[1] = Induction of catalepsy in rats; design: species or system male Wistar rats; settings: rat, in vivo, sc
From the text: In order to determine the potential of the compounds of the invention to generate a syndrome of extrapyramidal type, the capacity to induce a catalepsy in rats was examined. This phenomenon is due to an antagonism of the nigrostriatal dopaminergic transmission.
Male Wistar rats (220-240 g) were placed in individual cages and food was witheld the night before the test. The test used to evaluate the cataleptogenic properties of a product consists in placing each of the animal's hind feet on the forefoot located on the same side and in measuring the time in seconds for which the animal kept this "crossed feet" position, up to 30 seconds, as described by P. C. […] Each animal underwent three tests, at intervals of one minute; the average value of the three tests then represents the catalepsy time of the animal, which is used for the statistical analysis. The product to be tested was administered to the animal subcutaneously, 30 minutes before the test.
The effective cataleptogenic dose ED5.sbsb.0 is that which induces catalepsy for an average duration of 15 seconds, that is to say for 50% of the maximum duration of the test (30 seconds).

D2 = D2 (Rattus norvegicus, UniProt P61169); experiment: biochemical; settings: binding; read-out: Receptor Profile (pKi) D2 (converted)
D2, sequence (P61169 whole entry): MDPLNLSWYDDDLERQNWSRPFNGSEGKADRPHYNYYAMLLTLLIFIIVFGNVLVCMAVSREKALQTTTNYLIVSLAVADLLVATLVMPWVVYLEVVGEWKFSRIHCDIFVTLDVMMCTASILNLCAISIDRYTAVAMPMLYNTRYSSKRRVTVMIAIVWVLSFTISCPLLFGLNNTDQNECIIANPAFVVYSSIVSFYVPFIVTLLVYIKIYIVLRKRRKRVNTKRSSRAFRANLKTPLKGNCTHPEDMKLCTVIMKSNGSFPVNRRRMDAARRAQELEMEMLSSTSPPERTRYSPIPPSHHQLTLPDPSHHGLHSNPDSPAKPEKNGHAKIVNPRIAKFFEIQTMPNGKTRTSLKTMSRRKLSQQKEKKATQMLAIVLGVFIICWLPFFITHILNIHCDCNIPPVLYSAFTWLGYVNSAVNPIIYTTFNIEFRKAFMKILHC

[2] = system: mesolimbic dopaminergic pathways; experiment: Verticalization test using apomorphine in mice; assay type: in vivo, male CF (Charles River) mice; settings: for ED50: Mus musculus, sc, read-out: Verticalization (Apomorphine) DI50
Method: (§1) An activity in these tests appears to reflect blocking of the mesolimbic dopaminergic pathways, which are believed to be hyperactive in schizophrenics, as described by P. C.
The experiment was performed on male CF (Charles River) mice of average weight 25 g. thirty minutes before the start of the test, each mouse was placed in a cylindrical cage (O12 cm 14 cm), with vertical metal bars and a smooth plastic lid, after having received a subcutaneous injection of solvent or of product. […] At T10 (10 minutes) and at T20 (20 minutes), a score was attributed to each animal after observation for approximately one minute:
score 0 (4 feet on the floor);
score 1 (animal raised on hind legs, forefeet on the vertical bars);
score 2 (animal gripping on to the bars with all 4 feet).
The total score of the 2 measurements then represents the verticalization value of the animal, which is used for the statistical analysis.

5-HT2A = target: T1, 5-HT2A (Rattus norvegicus, UniProt P14842); experiment: Receptor profile, binding studies (5-HT2A); settings: Receptor Profile (pKi) 5-HT2A
T1 construct: from tissue
T1 sequence (P14842 whole entry): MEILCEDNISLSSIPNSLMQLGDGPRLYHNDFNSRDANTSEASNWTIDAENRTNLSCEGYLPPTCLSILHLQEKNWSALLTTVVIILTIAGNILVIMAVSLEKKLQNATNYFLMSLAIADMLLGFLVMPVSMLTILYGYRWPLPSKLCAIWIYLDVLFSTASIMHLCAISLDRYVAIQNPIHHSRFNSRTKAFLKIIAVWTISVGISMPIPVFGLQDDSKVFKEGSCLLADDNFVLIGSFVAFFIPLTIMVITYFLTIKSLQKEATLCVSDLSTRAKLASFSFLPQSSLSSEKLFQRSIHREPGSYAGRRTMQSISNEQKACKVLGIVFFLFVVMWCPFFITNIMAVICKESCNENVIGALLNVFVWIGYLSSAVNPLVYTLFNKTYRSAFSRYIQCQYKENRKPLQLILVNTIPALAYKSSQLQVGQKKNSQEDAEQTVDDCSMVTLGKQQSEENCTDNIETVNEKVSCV

5-HT1A = target: T2, 5-HT1A (Rattus norvegicus, UniProt P19327); experiment: biochemical; settings: binding; read-out: Receptor Profile (pKi) 5-HT1A (converted)
T2 sequence (P19327 1-422): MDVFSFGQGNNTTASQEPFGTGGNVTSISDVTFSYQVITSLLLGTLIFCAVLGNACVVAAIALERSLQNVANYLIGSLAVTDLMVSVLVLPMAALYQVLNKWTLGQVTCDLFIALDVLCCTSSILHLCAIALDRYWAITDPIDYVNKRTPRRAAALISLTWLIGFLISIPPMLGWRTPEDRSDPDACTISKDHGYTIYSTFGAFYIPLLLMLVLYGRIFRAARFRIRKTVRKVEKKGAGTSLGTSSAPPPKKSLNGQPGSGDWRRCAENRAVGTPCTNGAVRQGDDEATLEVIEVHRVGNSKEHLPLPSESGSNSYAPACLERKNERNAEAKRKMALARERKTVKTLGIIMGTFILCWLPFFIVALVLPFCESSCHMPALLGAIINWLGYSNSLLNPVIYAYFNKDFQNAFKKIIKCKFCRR

D1 = target: T3, D1 (Rattus norvegicus, UniProt P18901); experiment: Receptor profile, binding studies (D1); settings: read-out: Receptor Profile (pKi) D1 (converted)
T3 construct: from tissue
T3 sequence (P18901 whole entry): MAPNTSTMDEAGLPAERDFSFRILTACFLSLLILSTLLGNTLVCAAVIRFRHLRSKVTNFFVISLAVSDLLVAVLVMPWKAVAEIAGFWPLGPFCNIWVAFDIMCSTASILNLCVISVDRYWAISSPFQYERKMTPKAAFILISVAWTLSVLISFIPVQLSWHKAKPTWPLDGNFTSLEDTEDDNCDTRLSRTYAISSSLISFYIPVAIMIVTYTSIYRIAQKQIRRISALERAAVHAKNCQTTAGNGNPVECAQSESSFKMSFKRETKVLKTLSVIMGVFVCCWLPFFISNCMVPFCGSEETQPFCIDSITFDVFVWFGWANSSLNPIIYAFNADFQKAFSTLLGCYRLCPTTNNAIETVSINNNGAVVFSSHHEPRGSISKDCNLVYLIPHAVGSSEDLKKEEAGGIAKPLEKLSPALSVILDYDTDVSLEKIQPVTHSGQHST

[3] = system: mesolimbic dopaminergic pathways; experiment: Test of the motor activity induced by amphetamine; assay type: in vivo, male Wistar rats; settings: for ED50: Rattus norvegicus, sc, read-out: Locomotion (Amphetamine) DI50
Method: motor activity inhibition induced by amphetamine (which increases the release of catecholamines) according to the procedure described by A. A. Mengens, cited above.
as §1
Male Wistar rats (200-220 g) were placed in transparent polycarbonate individual cages the night before the test. The locomotor activity was recorded using photoelectric cells (Systeme Lablinc, Coulbourn) connected via an interface to a microcomputer. There are two transverse banks of photoelectric cells per cage. The test takes place under artificial light, starting from 1.00 p.m., during daylight hours. The product or solvent was administered to the animal subcutaneously, 30 minutes before the start of the test.

5-HT2C = target: T4, 5-HT2C (Sus scrofa, UniProt K7GSR7); experiment: Receptor profile, binding studies (5-HT2C); settings: Receptor Profile (pKi) 5-HT2C
T4 construct: from tissue
T4 sequence (K7GSR7 1-457): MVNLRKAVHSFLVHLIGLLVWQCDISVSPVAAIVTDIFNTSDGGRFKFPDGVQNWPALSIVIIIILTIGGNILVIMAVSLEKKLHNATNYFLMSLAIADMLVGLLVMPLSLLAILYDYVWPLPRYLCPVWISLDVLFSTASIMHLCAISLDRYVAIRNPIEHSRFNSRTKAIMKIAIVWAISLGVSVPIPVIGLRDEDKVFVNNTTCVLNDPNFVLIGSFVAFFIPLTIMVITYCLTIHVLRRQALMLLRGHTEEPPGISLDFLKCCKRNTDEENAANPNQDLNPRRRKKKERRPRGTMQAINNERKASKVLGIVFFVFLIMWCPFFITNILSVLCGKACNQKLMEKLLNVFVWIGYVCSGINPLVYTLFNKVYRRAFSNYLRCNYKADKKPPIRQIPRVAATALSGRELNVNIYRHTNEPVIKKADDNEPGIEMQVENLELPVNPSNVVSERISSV

5-HT1A receptors = settings: unlike haloperidol; cited from earlier work
[4] = system: adrenergic (α1) receptors; settings: cited from earlier work
schizophrenia = settings: cited from earlier work
[5] = mice, s.c. 30 min before, apomorphine 0.75 mg/kg s.c., Inhibitory Dose50, 95% confidence limits
[6] = rats, s.c. 30 min before, D-amphetamine 2.5 mg/kg i.p., 1 hour, Inhibitory Dose50, 95% confidence limits

SMILES	ED50 at 0.5 h [1]	Ki (D2)	ED50 [2, 5]	Ki (5-HT2A)	Ki (5-HT1A)	Ki (D1)	ED50 [3, 6]	Ki (5-HT2C)	other results
O=C(CC1CCN(CCOc2cccc3c2OCCO3)C1)c1ccc(F)cc1 (single isomer, unassigned) [Example 5, 5-{2-[3-(4-Fluorobenzoylmethyl)pyrrolidin-1-yl]ethoxy}-1,4-benzodioxane hydrochloride, (+) isomer]	> 40 mg/kg	46.8 nM	0.26 mg/kg	3.31 nM	4.79 nM	275 nM	2.8 mg/kg	9.33 nM	Receptor Profile (pKi) α1 (α1; listed as ex. 5): 8.19
O=C(CC1CCN(CCOc2cccc3c2OCCO3)C1)c1ccc(F)cc1 (single isomer, unassigned) [Example 6, 5-{2-[3-(4-Fluorobenzoylmethyl)pyrrolidin-1-yl]ethoxy}-1,4-benzodioxane hydrochloride, (-) isomer]	–	53.7 nM	–	2.4 nM	3.63 nM	204 nM	–	6.61 nM	Receptor Profile (pKi) α1 (α1; listed as ex. 6): 8.93; Verticalization (Apomorphine) DI50 ([2]; mice, s.c. 30 min before, apomorphine 0.75 mg/kg s.c., Inhibitory Dose50, 95% confidence limits, listed as Ex. 6): 0.25 mg/kg; Locomotion (Amphetamine) DI50 ([3]; rats, s.c. 30 min before, D-amphetamine 2.5 mg/kg i.p., 1 hour, Inhibitory Dose50, 95% confidence limits, listed as Ex. 6): 1.94 mg/kg
CN1CCN(C2=Nc3cc(Cl)ccc3Nc3ccccc32)CC1 [Clozapine, clozapine]	–	–	2.22 mg/kg	–	–	–	12.8 mg/kg	–	ED50 at 0.5 h ([1]; rats, s.c. 30 min before, dose inducing catalepsy for an average of 15 seconds (50% of maximum), read-out: Induction of the catalepsy DE50): > 40 mg/kg; affinity for the 5-HT1A receptors (5-HT1A receptors): a certain affinity for the 5-HT1A receptors; affinity for the adrenergic (α1) receptors [4]: relatively high affinity; toxicity in the general treatment of schizophrenic states (schizophrenia; human, in vivo): on account of its toxicity, clozapine cannot be envisaged in the general treatment of schizophrenic states; extrapyramidal syndrome (schizophrenia; schizophrenia): appears not to bring about an extrapyramidal syndrom
O=C(CC1CCN(CCOc2cccc3c2OCCO3)C1)c1ccc(F)cc1 (stereo not shown) [Example 2, 5-{2-[3-(4-Fluorobenzoylmethyl)pyrrolidin-1-yl}-1,4-benzodioxane hydrochloride]	> 40 mg/kg	43.7 nM	0.28 mg/kg	3.98 nM	4.9 nM	251 nM	2.17 mg/kg	7.94 nM	Receptor Profile (pKi) α1 (α1): 8.61
Cl.Fc1ccc2c(CC3CCN(CCOc4cccc5c4OCCO5)C3)n[nH]c2c1 (stereo not shown) [Example 7, 5-{2-[3-[(6-Fluoro-1H-indazol-3-yl)methyl]pyrrolidin-1-yl]ethoxy}-1,4-benzodioxane hydrochloride]	–	53.7 nM	0.41 mg/kg	21.9 nM	1.7 nM	–	–	93.3 nM	–
Cl.Fc1ccc2c(CC3CCN(CCOc4cccc5c4OCCO5)C3)noc2c1 (stereo not shown) [Example 8, 5-{2-[3-[(6-Fluoro-1,2-benzisoxazol-3-yl)methyl]pyrrolidin-1-yl]ethoxy}-1,4-benzodioxane hydrochloride]	–	257 nM	~0.63 mg/kg	13.2 nM	3.89 nM	–	–	95.5 nM	–
O=C(CCCN1CCC(O)(c2ccc(Cl)cc2)CC1)c1ccc(F)cc1 [Haloperidol, haloperidol, reference compound]	0.156 mg/kg	–	–	–	–	–	–	–	ED50 [2]: 0.013 mg/kg; ED50 [3]: 0.043 mg/kg; effectiveness for the productive symptoms (such as fabulation and hallucinations) (schizophrenia; schizophrenia): quite good care for the productive symptoms; effectiveness with regard to deficiency symptoms (such as social withdrawal) (schizophrenia; schizophrenia): very poor; extrapyramidal syndrome (schizophrenia; schizophrenia): induce an extrapyramidal syndrome of Parkinson type

— patent US5500443A, “New benzodioxane compounds” (Adir et Compagnie, priority 1994, dated 1996)
